# Publication PMC2364878, “Insecticidal Effects of Organotin(IV) Compounds on Plutella Xylostella (L.) Larvae. II. Inhibitory Potencies Against Acetylcholinesterase and Evidence for Synergism in Tests With Bacillus Thuringiensis(BER.) and Malathion” (Metal-Based Drugs, 1994)
# Where two headings read alike, the source gives them in different places.
# Columns and labels:
# [1] = tested on: T1, acetylcholinesterase (AChE), R-strain DBM larvae; experiment: Ellman colorimetric assay, […] nm, linear regression; type: biochemical, Plutella xylostella; details: acetylthiocholine iodide 0.5 mM, DTNB 0.3 mM, 0.1 M phosphate pH 7.0, 6 min; above tested range (10^-3 to 10^-8 M); technical grade 90% a.i.; read-out: I50
# T1 construct: gene ace1; native, 1,500 g supernatant of whole 4th instar larva homogenate, not purified
# [2] = tested on: T2, acetylcholinesterase (AChE), S-strain DBM larvae; experiment: Ellman colorimetric assay, […] nm, linear regression; type: biochemical, Plutella xylostella; details: acetylthiocholine iodide 0.5 mM, DTNB 0.3 mM, 0.1 M phosphate pH 7.0, 6 min, read-out: I50
# T2 construct: gene ace1; native, 1,500 g supernatant of whole 4th instar larva homogenate, not purified
SMILES,IC50 [1] [mM],IC50 ([2]; technical grade 90% a.i.) [mM],"IC50 ([2]; above tested range (10^-3 to 10^-8 M), technical grade 84% a.i.) [mM]"
CNC(=O)ON=C(C)SC [Methomyl],2.36,0.351,
CCOC(=O)CC(SP(=S)(OC)OC)C(=O)OCC (stereo not drawn) [Malathion],,,33.2
